Data taken from patent US10004701B2, “Methods and compositions for treating infection” (UNIVERSITY OF ROCHESTER, priority 2012, dated 2018).
Counter-ions that a name gives are not always drawn. Like-named read-outs stand apart in the source and are kept apart here.

How the values were obtained:
Experiment in all cases: AK assay 384-well format, Prestwick library screening
E. coli = format: cell-based, Escherichia coli; conditions: 50 μM final drug concentration; for fold induction at 50 µM: Escherichia coli, 3 h
[1] = system: A. baumannii strain 98-37-09; format: cell-based, Acinetobacter baumannii; conditions: 50 μM final drug concentration; for fold induction at 50 µM: Acinetobacter baumannii, 983709, 3 h
E. faecium = format: cell-based, Enterococcus faecium; conditions: 50 μM final drug concentration; for fold induction at 50 µM: Enterococcus faecium, 3 h
K. pneumoniae = format: cell-based, Klebsiella pneumoniae; conditions: 50 μM final drug concentration; for fold induction at 50 µM: Klebsiella pneumoniae, 3 h
E. cloacae = format: cell-based, Enterobacter cloacae; conditions: 50 μM final drug concentration; for fold induction at 50 µM: Enterobacter cloacae, 3 h
[2] = system: S. aureus strain USA300-0114; format: cell-based, Staphylococcus aureus; conditions: 50 μM final drug concentration; for fold induction at 50 µM: Staphylococcus aureus, USA300, 3 h
P. aeruginosa = format: cell-based, Pseudomonas aeruginosa; conditions: 50 μM final drug concentration; for fold induction at 50 µM: Pseudomonas aeruginosa, 3 h
[3] = planktonic, cutoff for positive-scoring molecules 3-fold increase, read-out: AK-based Prestwick Library Screening Results, E. coli (fold increase in extracellular AK activity)
[4] = planktonic, cutoff for positive-scoring molecules 3-fold increase, read-out: AK-based Prestwick Library Screening Results, A. baumannii (fold increase in extracellular AK activity)
[5] = planktonic, cutoff for positive-scoring molecules 3-fold increase, read-out: AK-based Prestwick Library Screening Results, E. faecium (fold increase in extracellular AK activity)
[6] = planktonic, cutoff for positive-scoring molecules 3-fold increase, read-out: AK-based Prestwick Library Screening Results, K. pneumoniae (fold increase in extracellular AK activity)
[7] = planktonic, cutoff for positive-scoring molecules 3-fold increase, read-out: AK-based Prestwick Library Screening Results, E. cloacae (fold increase in extracellular AK activity)
[8] = planktonic, cutoff for positive-scoring molecules 3-fold increase, read-out: AK-based Prestwick Library Screening Results, S. aureus (fold increase in extracellular AK activity)
[9] = planktonic, cutoff for positive-scoring molecules 3-fold increase, read-out: AK-based Prestwick Library Screening Results, P. aeruginosa (fold increase in extracellular AK activity)
[10] = cutoff for positive-scoring molecules 3-fold increase, read-out: AK-based Prestwick Library Screening Results, E. coli (fold increase in extracellular AK activity)
[11] = cutoff for positive-scoring molecules 3-fold increase, read-out: AK-based Prestwick Library Screening Results, A. baumannii (fold increase in extracellular AK activity)
[12] = cutoff for positive-scoring molecules 3-fold increase, read-out: AK-based Prestwick Library Screening Results, E. faecium (fold increase in extracellular AK activity)
[13] = cutoff for positive-scoring molecules 3-fold increase, read-out: AK-based Prestwick Library Screening Results, K. pneumoniae (fold increase in extracellular AK activity)
[14] = cutoff for positive-scoring molecules 3-fold increase, read-out: AK-based Prestwick Library Screening Results, E. cloacae (fold increase in extracellular AK activity)
[15] = cutoff for positive-scoring molecules 3-fold increase, read-out: AK-based Prestwick Library Screening Results, S. aureus (fold increase in extracellular AK activity)
[16] = cutoff for positive-scoring molecules 3-fold increase, read-out: AK-based Prestwick Library Screening Results, P. aeruginosa (fold increase in extracellular AK activity)
[17] = planktonic E. coli, positive cutoff 3-fold increase, read-out: AK-based Prestwick library screening result, E. coli (fold increase in extracellular AK activity)
[18] = planktonic A. baumannii, positive cutoff 3-fold increase, read-out: AK-based Prestwick library screening result, A. baumannii (fold increase in extracellular AK activity)
[19] = planktonic E. faecium, positive cutoff 3-fold increase, read-out: AK-based Prestwick library screening result, E. faecium (fold increase in extracellular AK activity)
[20] = planktonic K. pneumoniae, positive cutoff 3-fold increase, read-out: AK-based Prestwick library screening result, K. pneumoniae (fold increase in extracellular AK activity)
[21] = planktonic E. cloacae, positive cutoff 3-fold increase, read-out: AK-based Prestwick library screening result, E. cloacae (fold increase in extracellular AK activity)
[22] = planktonic S. aureus, positive cutoff 3-fold increase, read-out: AK-based Prestwick library screening result, S. aureus (fold increase in extracellular AK activity)
[23] = planktonic P. aeruginosa, positive cutoff 3-fold increase, read-out: AK-based Prestwick library screening result, P. aeruginosa (fold increase in extracellular AK activity)

Structure (SMILES): NS(=O)(=O)c1cc2c(cc1Cl)N=C(CSCc1ccccc1)NS2(=O)=O [Benzthiazide]
- fold induction at 50 µM (E. coli; [3]): 0.9
- fold induction at 50 µM [1, 4]: 0.9
- fold induction at 50 µM (E. faecium; [5]): 1.4
- fold induction at 50 µM (K. pneumoniae; [6]): 0.8
- fold induction at 50 µM (E. cloacae; [7]): 1.1
- fold induction at 50 µM [2, 8]: 0.8
- fold induction at 50 µM (P. aeruginosa; [9]): 0.9

Structure (SMILES): COc1cc(C(=O)OC2CC3CCC(C2)N3C)ccc1O (stereo not shown) [Fillalbin]
- fold induction at 50 µM (E. coli; [10]): 1.2
- fold induction at 50 µM [1, 11]: 0.9
- fold induction at 50 µM (E. faecium; [12]): 1
- fold induction at 50 µM (K. pneumoniae; [13]): 0.8
- fold induction at 50 µM (E. cloacae; [14]): 1.8
- fold induction at 50 µM [2, 15]: 1
- fold induction at 50 µM (P. aeruginosa; [16]): 1.2

Structure (SMILES): CCNCC(O)c1cccc(O)c1 (stereo not shown) [Etilefrine hydrochloride]
- fold induction at 50 µM (E. coli; [17]): 1
- fold induction at 50 µM [1, 18]: 1.4
- fold induction at 50 µM (E. faecium; [19]): 1
- fold induction at 50 µM (K. pneumoniae; [20]): 0.8
- fold induction at 50 µM (E. cloacae; [21]): 1.5
- fold induction at 50 µM [2, 22]: 1.1
- fold induction at 50 µM (P. aeruginosa; [23]): 1.1

Structure (SMILES): CCN(CC)C(C)CN1c2ccccc2Sc2ccccc21 (stereo not shown) [Ethopropazine hydrochloride]
- fold induction at 50 µM (E. coli; [3]): 0.9
- fold induction at 50 µM [1, 4]: 1
- fold induction at 50 µM (E. faecium; [5]): 0.9
- fold induction at 50 µM (K. pneumoniae; [6]): 0.8
- fold induction at 50 µM (E. cloacae; [7]): 1.3
- fold induction at 50 µM [2, 8]: 0.7
- fold induction at 50 µM (P. aeruginosa; [9]): 1

Structure (SMILES): CCCCC1(COC(=O)CCC(=O)O)C(=O)N(c2ccccc2)N(c2ccccc2)C1=O [Suxibuzone]
- fold induction at 50 µM (E. coli; [3]): 0.6
- fold induction at 50 µM [1, 4]: 0.8
- fold induction at 50 µM (E. faecium; [5]): 0.9
- fold induction at 50 µM (K. pneumoniae; [6]): 0.6
- fold induction at 50 µM (E. cloacae; [7]): 0.8
- fold induction at 50 µM [2, 8]: 0.6
- fold induction at 50 µM (P. aeruginosa; [9]): 0.6

Structure (SMILES): CCCC1C(=O)N2C(N(C)C)=Nc3ccc(C)cc3N2C1=O (stereo not shown) [Azapropazone]
- fold induction at 50 µM (E. coli; [17]): 1.1
- fold induction at 50 µM [1, 18]: 0.9
- fold induction at 50 µM (E. faecium; [19]): 1
- fold induction at 50 µM (K. pneumoniae; [20]): 0.9
- fold induction at 50 µM (E. cloacae; [21]): 1.5
- fold induction at 50 µM [2, 22]: 0.8
- fold induction at 50 µM (P. aeruginosa; [23]): 1

Structure (SMILES): CNC(=C[N+](=O)[O-])NCCSCc1csc(CN(C)C)n1 [Nizatidine]
- fold induction at 50 µM (E. coli; [10]): 1.3
- fold induction at 50 µM [1, 11]: 1
- fold induction at 50 µM (E. faecium; [12]): 1
- fold induction at 50 µM (K. pneumoniae; [13]): 0.9
- fold induction at 50 µM (E. cloacae; [14]): 1.7
- fold induction at 50 µM [2, 15]: 1.2
- fold induction at 50 µM (P. aeruginosa; [16]): 1.2

Structure (SMILES): CCN(CC)CCNc1ccc(CO)c2sc3ccccc3c(=O)c12 [Hycanthone]
- fold induction at 50 µM (E. coli; planktonic E. coli, cutoff for positive-scoring molecules 3-fold increase, read-out: AK-based Prestwick Library Screening Results, E. coli (increase in extracellular AK activity)): 0.9
- fold induction at 50 µM ([1]; planktonic A. baumannii, cutoff for positive-scoring molecules 3-fold increase, read-out: AK-based Prestwick Library Screening Results, A. baumannii (increase in extracellular AK activity)): 0.8
- fold induction at 50 µM (E. faecium; planktonic E. faecium, cutoff for positive-scoring molecules 3-fold increase, read-out: AK-based Prestwick Library Screening Results, E. faecium (increase in extracellular AK activity)): 1.2
- fold induction at 50 µM (K. pneumoniae; planktonic K. pneumoniae, cutoff for positive-scoring molecules 3-fold increase, read-out: AK-based Prestwick Library Screening Results, K. pneumoniae (increase in extracellular AK activity)): 0.7
- fold induction at 50 µM (E. cloacae; planktonic E. cloacae, cutoff for positive-scoring molecules 3-fold increase, read-out: AK-based Prestwick Library Screening Results, E. cloacae (increase in extracellular AK activity)): 1.1
- fold induction at 50 µM ([2]; planktonic S. aureus, cutoff for positive-scoring molecules 3-fold increase, read-out: AK-based Prestwick Library Screening Results, S. aureus (increase in extracellular AK activity)): 0.8
- fold induction at 50 µM (P. aeruginosa; planktonic P. aeruginosa, cutoff for positive-scoring molecules 3-fold increase, read-out: AK-based Prestwick Library Screening Results, P. aeruginosa (increase in extracellular AK activity)): 0.8

Structure (SMILES): COc1cc2c(cc1O)C[C@H]1c3c(cc(O)c(OC)c3-2)CCN1C [Boldine]
- fold induction at 50 µM (E. coli; planktonic E. coli, […], read-out: AK-based Prestwick Library Screening Results, E. coli (increase in extracellular AK activity)): 0.9
- fold induction at 50 µM ([1]; planktonic A. baumannii, […], read-out: AK-based Prestwick Library Screening Results, A. baumannii (increase in extracellular AK activity)): 0.8
- fold induction at 50 µM (E. faecium; planktonic E. faecium, […], read-out: AK-based Prestwick Library Screening Results, E. faecium (increase in extracellular AK activity)): 0.9
- fold induction at 50 µM (K. pneumoniae; planktonic K. pneumoniae, […], read-out: AK-based Prestwick Library Screening Results, K. pneumoniae (increase in extracellular AK activity)): 0.7
- fold induction at 50 µM (E. cloacae; planktonic E. cloacae, […], read-out: AK-based Prestwick Library Screening Results, E. cloacae (increase in extracellular AK activity)): 1.2
- fold induction at 50 µM ([2]; planktonic S. aureus, […], read-out: AK-based Prestwick Library Screening Results, S. aureus (increase in extracellular AK activity)): 0.8
- fold induction at 50 µM (P. aeruginosa; planktonic P. aeruginosa, […], read-out: AK-based Prestwick Library Screening Results, P. aeruginosa (increase in extracellular AK activity)): 0.9

Structure (SMILES): CC1(C)S[C@@H]2[C@H](NC(=O)Cc3ccccc3)C(=O)N2[C@H]1C(=O)O.CC1(C)S[C@@H]2[C@H](NC(=O)Cc3ccccc3)C(=O)N2[C@H]1C(=O)O.c1ccc(CNCCNCc2ccccc2)cc1 [Benzathine benzylpenicillin]
- AK-based Prestwick library screening result, E. coli (fold increase in extracellular AK activity) (E. coli; planktonic E. coli, positive cutoff 3-fold increase): 15.6
- AK-based Prestwick library screening result, A. baumannii (fold increase in extracellular AK activity) ([1]; planktonic A. baumannii, positive cutoff 3-fold increase): 5.9
- AK-based Prestwick library screening result, E. faecium (fold increase in extracellular AK activity) (E. faecium; planktonic E. faecium, positive cutoff 3-fold increase): 1.6
- AK-based Prestwick library screening result, K. pneumoniae (fold increase in extracellular AK activity) (K. pneumoniae; planktonic K. pneumoniae, positive cutoff 3-fold increase): 1.0
- AK-based Prestwick library screening result, E. cloacae (fold increase in extracellular AK activity) (E. cloacae; planktonic E. cloacae, positive cutoff 3-fold increase): 1.6
- AK-based Prestwick library screening result, S. aureus (fold increase in extracellular AK activity) ([2]; planktonic S. aureus, positive cutoff 3-fold increase): 1.0
- AK-based Prestwick library screening result, P. aeruginosa (fold increase in extracellular AK activity) (P. aeruginosa; planktonic P. aeruginosa, positive cutoff 3-fold increase): 1.1
